Laboratory results as given in ChEMBL document CHEMBL1130825, “Novel D-ring analogues of podophyllotoxin as potent anti-cancer agents” (1998).

Legend:
[1] = system: A498; assay: in vitro cytotoxicity against A 498 cancer cell line; assay type: functional; settings: Homo sapiens
[2] = system: BT-549; assay: In vitro cytotoxicity against human breast cancer BT-549 cell line; assay type: functional
[3] = system: COLO 205; assay: In vitro cytotoxicity against human colon cancer COLO 205 cell line; assay type: functional
[4] = system: DU-145; assay: in vitro cytotoxicity against DU-145 cancer cell line; assay type: functional; settings: Homo sapiens
[5] = system: HCT-15; assay: In vitro cytotoxicity against human colon cancer HCT 15 cell line; assay type: functional
[6] = system: HCT-116; assay: In vitro cytotoxicity against human colon cancer HCT 116 cell line; assay type: functional
[7] = system: HCC 2998; assay: In vitro cytotoxicity against human colon cancer HCC 2998 cell line; assay type: functional
[8] = system: HT-29; assay: In vitro cytotoxicity against human colon cancer HT 29 cell line; assay type: functional
[9] = system: Hs-578T; assay: In vitro cytotoxicity against human breast cancer Hs 578.T cell line; assay type: functional
[10] = system: KM12; assay: In vitro cytotoxicity against human colon cancer KM 12 cell line; assay type: functional
[11] = system: MCF7; assay: In vitro cytotoxicity against human breast cancer MCF-7 cell line; assay type: functional
[12] = system: M14; assay: in vitro cytotoxicity against M-14 cancer cell line; assay type: functional; settings: Homo sapiens
[13] = system: MDA-MB-231; assay: In vitro cytotoxicity against human breast cancer MDA-MB 231 cell line; assay type: functional
[14] = system: MDA-MB-435; assay: In vitro cytotoxicity against human breast cancer MDA-MB 435 cell line; assay type: functional
[15] = system: MCF7; assay: in vitro cytotoxicity against MCF-7 ADR cancer cell line; assay type: functional; settings: Homo sapiens
[16] = In vitro cytotoxicity against human breast cancer MCF-7 ADR cell line; assay type: functional; settings: MCF7
[17] = system: MDA-N; assay: In vitro cytotoxicity against human breast cancer MDA-N cell line; assay type: functional
[18] = system: SW-620; assay: In vitro cytotoxicity against human colon cancer SW 620 cell line; assay type: functional
[19] = system: SK-OV-3; assay: Compound was evaluated for in vitro cytotoxicity against SKOV3 cancer cell line; assay type: functional; settings: Homo sapiens
[20] = system: SK-OV-3; assay: in vitro cytotoxicity against SKOV3 cancer cell line; assay type: functional; settings: Homo sapiens
[21] = system: MCF7; assay: Compound was evaluated for in vitro cytotoxicity data against human breast cancer MCF-7 ADR cell line; assay type: functional
[22] = system: A498; assay: Compound was evaluated for in vitro cytotoxicity against A 498 cancer cell line; assay type: functional; settings: Homo sapiens
[23] = system: DU-145; assay: Compound was evaluated for in vitro cytotoxicity against DU-145 cancer cell line; assay type: functional; settings: Homo sapiens
[24] = system: M14; assay: Compound was evaluated for in vitro cytotoxicity against M-14 cancer cell line; assay type: functional; settings: Homo sapiens
[25] = system: MCF7; assay: Compound was evaluated for in vitro cytotoxicity against MCF-7 ADR cancer cell line; assay type: functional; settings: Homo sapiens
[26] = system: NCI-H522; assay: Compound was evaluated for in vitro cytotoxicity against H522 cancer cell line; settings: Homo sapiens

Compound	GI50 [2] [µM]	GI50 [3] [µM]	GI50 [5] [µM]	GI50 [6] [µM]	GI50 [7] [µM]	GI50 [8] [µM]	GI50 [9] [µM]	GI50 [10] [µM]	GI50 [11] [µM]	GI50 [13] [µM]	GI50 [14] [µM]	GI50 [16] [µM]	GI50 [17] [µM]	GI50 [18] [µM]	also measured
CCOC(=O)[C@@H]1[C@H](c2cc(OC)c(OC)c(OC)c2)c2cc3c(cc2[C@H](O)[C@H]1CO)OCO3	> 30	14	13	24	14	17	27	8.4	23	18	4.4	14	3.5	26	GI50 [1]: > 30 µM; GI50 [4]: > 30 µM; GI50 [12]: 14.9 µM; GI50 [15]: 14.3 µM; GI50 [19]: 29.9 µM
CCOC(=O)[C@@H]1[C@H](c2cc(OC)c(O)c(OC)c2)c2cc3c(cc2[C@H](O)[C@H]1CO)OCO3	4.91	1.16	2.07	1.7	1.3	0.88	1.2	0.78	2.17	6.78	0.84	–	1.06	1.17	GI50 [1]: 1.1 µM; GI50 [4]: 1.63 µM; GI50 [12]: 2.1 µM; GI50 [20]: 3.35 µM
CCOC(=O)[C@@H]1C(c2cc(OC)c(OC)c(OC)c2)c2cc3c(cc2[C@@H]2OC(=O)OC[C@@H]12)OCO3 (some centres not stated)	–	1.5	0.2	0.09	8	2	–	6	–	–	–	–	–	–	–
CCCOC(=O)[C@@H]1C(c2cc(OC)c(OC)c(OC)c2)c2cc3c(cc2[C@@H]2OC(=O)OC[C@@H]12)OCO3 (some centres not stated)	–	0.9	0.3	0.5	2	> 30	–	2	–	–	–	–	–	–	–
COc1cc([C@@H]2c3cc4c(cc3[C@@H](O[C@@H]3O[C@@H]5CO[C@@H](C)O[C@H]5[C@H](O)[C@H]3O)[C@H]3COC(=O)[C@H]23)OCO4)cc(OC)c1O [ETOPOSIDE]	–	18.1	–	6.16	3.46	15.1	8	5.62	–	2	0.9	–	< 0.01	–	GI50 [21]: 25 µM
COc1cc([C@@H]2c3cc4c(cc3[C@H](O)[C@@H](CO)[C@@H]2C(=O)O)OCO4)cc(OC)c1OC	–	< 0.01	> 100	40	55	50	–	< 0.01	–	–	–	–	–	–	–
COC(=O)[C@@H]1[C@H](c2cc(OC)c(OC)c(OC)c2)c2cc3c(cc2[C@H](O)[C@H]1CO)OCO3	0.06	0.01	0.04	0.04	0.03	0.02	0.01	0.02	0.03	0.03	0.01	0.04	0.01	0.02	GI50 [22]: 0.03 µM; GI50 [23]: 0.04 µM; GI50 [24]: 0.04 µM; GI50 [25]: 0.04 µM; GI50 [19]: 0.03 µM; GI50 [26]: 0.01 µM
COC(=O)[C@@H]1[C@H](c2cc(OC)c(O)c(OC)c2)c2cc3c(cc2[C@@H]2OC(=O)OC[C@@H]12)OCO3	–	0.2	0.4	0.5	1	> 30	–	0.4	–	–	–	–	–	–	–
COC(=O)[C@@H]1[C@H](c2cc(OC)c(O)c(OC)c2)c2cc3c(cc2[C@H](O)[C@H]1CO)OCO3	0.5	0.1	1.02	0.2	0.8	0.09	3.12	0.11	0.3	0.1	0.1	0.1	0.1	0.34	GI50 [1]: 0.4 µM; GI50 [4]: 0.47 µM; GI50 [12]: 0.86 µM; GI50 [15]: 0.1 µM; GI50 [20]: 0.34 µM
CCCCOC(=O)[C@@H]1[C@H](c2cc(OC)c(OC)c(OC)c2)c2cc3c(cc2[C@H](O)[C@H]1CO)OCO3	> 30	1.9	2	3.7	1.8	2.5	–	1.86	2	> 30	1.6	5.6	11.5	2.2	–
COc1cc([C@@H]2c3cc4c(cc3[C@H](O)[C@H]3COC(=O)[C@H]23)OCO4)cc(OC)c1OC [PODOFILOX]	–	–	0.02	0.01	0.2	0.01	0.08	0.01	0.9	0.04	0.7	0.6	0.07	–	–
CCCOC(=O)[C@@H]1[C@H](c2cc(OC)c(OC)c(OC)c2)c2cc3c(cc2[C@H](O)[C@H]1CO)OCO3	> 30	1.2	1.4	0.42	1.7	0.89	2.13	0.56	0.8	> 30	0.4	3.2	1.45	0.7	–
COC(=O)[C@@H]1C(c2cc(OC)c(OC)c(OC)c2)c2cc3c(cc2[C@@H]2OC(=O)OC[C@@H]12)OCO3 (some centres not stated)	–	2	10	> 30	20	> 30	–	70	–	–	–	–	–	–	–
CCOC(=O)[C@@H]1[C@H](c2cc(OC)c(OC)c(OC)c2)c2cc3c(cc2C(=O)[C@H]1CO)OCO3	5.45	2.22	3.99	4.35	5.63	3.36	1.56	4.21	3.86	5.99	1.33	5.14	1.7	2.07	–
COC(=O)[C@@H]1[C@H](c2cc(OC)c(OC)c(OC)c2)c2cc3c(cc2C(=O)[C@H]1CO)OCO3	29	7.71	5.71	6.26	10.8	3.52	1.89	3.62	4.11	16.5	1.64	17.5	2.24	3.71	–
CCOC(=O)[C@@H]1[C@H](c2cc(OC)c(O)c(OC)c2)c2cc3c(cc2[C@@H]2OC(=O)OC[C@@H]12)OCO3	–	30	0.4	0.6	1.5	0.2	–	0.2	–	–	–	–	–	–	–
